These results are taken from ChEMBL document CHEMBL1144273, “Synthesis and SAR studies of 3-phenoxypropyl piperidine analogues as ORL1 (NOP) receptor agonists” (Bioorg Med Chem Lett, 2005).

For this assay, the system named is Mus musculus. As to the kind of experiment: In vivo effective dose against mouse formalin paw after intravenous administration of the compound. It counts as functional.

`COc1ccc(C)c(OC(CCN2CCC(n3c(=O)[nH]c4ccccc43)CC2)C(C)C)c1` (stereo unspecified) [ORGANON] returned an ED50 of 1.07 µmol/kg.
